# The source made the active and inactive calls. The calls are words filed in the database; no cut-off is given here.
# Experiments:
# [1] = molecular target: T1, Protein cereblon/Tyrosine-protein kinase Lck (Homo sapiens, UniProt P06239+Q96SW2); assay: PROTAC activity at HiBit-tagged LCK/CRBN in human KOPT-K1 cells assessed as reduction in LCK level at 0.1 to 1000 nM incubated for 6 hrs immunoblotting analysis; format: cell-based; conditions: dose 0.1-1000 nM
# Target sequence in this assay (P06239 2-509 limits assumed): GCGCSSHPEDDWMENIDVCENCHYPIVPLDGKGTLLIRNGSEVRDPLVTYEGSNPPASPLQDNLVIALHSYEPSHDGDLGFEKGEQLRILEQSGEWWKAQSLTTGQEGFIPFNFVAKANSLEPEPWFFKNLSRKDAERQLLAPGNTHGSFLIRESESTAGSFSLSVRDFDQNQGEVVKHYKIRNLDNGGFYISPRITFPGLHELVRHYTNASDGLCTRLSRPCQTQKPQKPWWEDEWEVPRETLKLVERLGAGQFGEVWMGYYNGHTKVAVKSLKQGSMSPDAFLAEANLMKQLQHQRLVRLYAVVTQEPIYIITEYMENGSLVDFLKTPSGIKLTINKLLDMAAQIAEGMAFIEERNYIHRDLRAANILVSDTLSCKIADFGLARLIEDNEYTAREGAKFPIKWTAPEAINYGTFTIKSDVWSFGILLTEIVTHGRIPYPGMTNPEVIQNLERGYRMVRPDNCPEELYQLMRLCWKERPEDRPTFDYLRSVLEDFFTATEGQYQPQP
# Target sequence in this assay (Q96SW2 whole entry partner): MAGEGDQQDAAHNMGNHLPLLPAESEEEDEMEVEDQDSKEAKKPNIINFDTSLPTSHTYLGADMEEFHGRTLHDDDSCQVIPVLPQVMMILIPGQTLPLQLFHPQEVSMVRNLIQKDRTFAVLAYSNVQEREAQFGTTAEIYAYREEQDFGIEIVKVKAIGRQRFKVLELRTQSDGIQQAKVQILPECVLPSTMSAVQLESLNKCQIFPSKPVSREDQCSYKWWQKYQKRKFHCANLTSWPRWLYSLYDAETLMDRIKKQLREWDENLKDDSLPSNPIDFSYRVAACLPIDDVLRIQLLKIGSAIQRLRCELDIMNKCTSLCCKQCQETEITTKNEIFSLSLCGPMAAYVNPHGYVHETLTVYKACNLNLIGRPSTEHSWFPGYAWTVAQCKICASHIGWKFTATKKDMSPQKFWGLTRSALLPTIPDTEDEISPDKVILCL
# [2] = Half life in CD-1 mouse at 3 mg/kg, iv measured up to 24 hrs; format: ADME, organism-based; conditions: in vivo
# KOPTK1 [3] = assay: Antiproliferative activity against human KOPT-K1 cells assessed as inhibition of cell growth at 100 nM measured for 18 hrs by celltiter glo assay; format: functional, cell-based
# [4] = Apparent permeability of compound across basolateral to apical side in human Caco-2 cells; format: ADME, cell-based
# [5] = Stability in CD-1 mouse plasma assessed as half life; format: ADME, cell-free
# [6] = AUClast in CD-1 mouse at 30 mg/kg, po measured up to 24 hrs; format: ADME, organism-based; conditions: in vivo
# [7] = Drug concentration in CD-1 mouse plasma at 30 mg/kg, po measured after 4 hrs by UPLC-MS/MS analysis; format: ADME, organism-based
# [8] = molecular target: T1, Protein cereblon/Tyrosine-protein kinase Lck; assay: PROTAC activity at HiBit-tagged LCK/CRBN in human KOPT-K1 cells assessed as induction of LCK degradation incubated for 6 hrs by Nano-Glo HiBiT assay; format: cell-based
# Target sequence in this assay (P06239 whole entry): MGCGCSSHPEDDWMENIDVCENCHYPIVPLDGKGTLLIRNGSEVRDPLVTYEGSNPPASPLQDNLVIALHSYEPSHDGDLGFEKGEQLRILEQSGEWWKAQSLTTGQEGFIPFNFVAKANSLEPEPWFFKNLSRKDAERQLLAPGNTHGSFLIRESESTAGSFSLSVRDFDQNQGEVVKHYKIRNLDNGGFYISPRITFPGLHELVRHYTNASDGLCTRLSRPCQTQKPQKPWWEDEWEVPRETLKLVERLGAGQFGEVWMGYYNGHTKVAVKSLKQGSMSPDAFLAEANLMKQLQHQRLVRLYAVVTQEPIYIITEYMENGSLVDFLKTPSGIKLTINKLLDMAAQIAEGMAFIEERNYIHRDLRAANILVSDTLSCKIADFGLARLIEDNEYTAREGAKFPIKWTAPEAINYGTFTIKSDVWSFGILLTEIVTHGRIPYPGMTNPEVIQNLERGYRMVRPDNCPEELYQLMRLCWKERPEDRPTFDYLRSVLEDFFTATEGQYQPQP
# Target sequence in this assay (Q96SW2 whole entry): as the sequence (Q96SW2 whole entry partner) above
# [9] = Metabolic stability in mouse liver microsomes assessed as half life in presence of NADPH by UPLC-MS/MS analysis; format: ADME, Microsome
# KOPTK1 [10] = assay: Downregulation of GAK in human KOPT-K1 cells measured for 6 hrs by tandem mass tag proteomic assay; format: functional, cell-based
# KOPTK1 [11] = assay: Downregulation of CK1alpha in human KOPT-K1 cells measured for 6 hrs by tandem mass tag proteomic assay; format: functional, cell-based
# [12] = molecular target: T1, Protein cereblon/Tyrosine-protein kinase Lck; assay: PROTAC activity at HiBit-tagged LCK/CRBN in human KOPT-K1 cells assessed as induction of LCK degradation incubated for 6 hrs by Western blot analysis; format: cell-based
# Target sequence in this assay (P06239 whole entry): as the sequence (P06239 whole entry) above
# Target sequence in this assay (Q96SW2 whole entry): as the sequence (Q96SW2 whole entry partner) above
# [13] = molecular target: T1, Protein cereblon/Tyrosine-protein kinase Lck; assay: PROTAC activity at HiBit-tagged LCK/CRBN in human KOPT-K1 cells assessed as induction of LCK degradation at 0.1 to 1000 nM incubated for 6 hrs by Western blot analysis relative to control; format: cell-based; conditions: dose 0.1-1000 nM
# Target sequence in this assay (P06239 2-509 limits assumed): as the sequence (P06239 2-509 limits assumed) above
# Target sequence in this assay (Q96SW2 whole entry partner): as the sequence (Q96SW2 whole entry partner) above
# KOPTK1 [14] = assay: Antiproliferative activity against human KOPT-K1 cells assessed as inhibition of cell growth at 100 nM measured for 280 hrs by celltiter glo assay; format: functional, cell-based
# Mus musculus [15] = assay: In-vivo PROTAC activity at LCK/CRBN in NOD Cg-Prkdc scid Il2rg tmIWjl (NSG) mouse model assessed as reduction in LCK level in Bone marrow at 30 mg/kg, po measured for 6 hrs by Western blot analysis; format: functional; set-up: scale not given: the % may be the effect or the level left
# [16] = Volume of distribution at steady state in CD-1 mouse at 3 mg/kg, iv measured up to 24 hrs; format: ADME, organism-based; conditions: in vivo, read-out: Vdss
# [17] = Cmax in CD-1 mouse at 3 mg/kg, iv measured up to 24 hrs; format: ADME, organism-based; conditions: in vivo
# [18] = Apparent permeability of compound across apical to basolateral side in human Caco-2 cells; format: ADME, cell-based
# [19] = Clearance in CD-1 mouse at 3 mg/kg, iv measured up to 24 hrs; format: ADME, organism-based; conditions: in vivo
# KOPTK1 [20] = assay: Downregulation of IKZF1 in human KOPT-K1 cells measured for 6 hrs by tandem mass tag proteomic assay; format: functional, cell-based
# KOPTK1 [21] = assay: Downregulation of EPHB1 in human KOPT-K1 cells measured for 6 hrs by tandem mass tag proteomic assay; format: functional, cell-based
# [22] = Efflux ratio of apparent permeability across basolateral to apical over apical to basolateral in human Caco-2 cells; format: ADME, cell-based
# Mus musculus [23] = assay: In-vivo PROTAC activity at LCK/CRBN in NOD Cg-Prkdc scid Il2rg tmIWjl (NSG) mouse model assessed as reduction in LCK level in Bone marrow at 30 mg/kg, po measured for 24 hrs by Western blot analysis; format: functional; set-up: scale not given: the % may be the effect or the level left
# [24] = Cmax in CD-1 mouse at 30 mg/kg, po measured up to 24 hrs; format: ADME, organism-based; conditions: in vivo
# KOPTK1 [25] = assay: Downregulation of CSK in human KOPT-K1 cells measured for 6 hrs by tandem mass tag proteomic assay; format: functional, cell-based
# [26] = Tmax in CD-1 mouse at 30 mg/kg, po measured up to 24 hrs; format: ADME, organism-based; conditions: in vivo
# KOPTK1 [27] = assay: Downregulation of GSPT1 in human KOPT-K1 cells measured for 6 hrs by tandem mass tag proteomic assay; format: functional, cell-based
# [28] = Volume of distribution at steady state in CD-1 mouse at 30 mg/kg, po measured up to 24 hrs; format: ADME, organism-based; conditions: in vivo
# [29] = Clearance in CD-1 mouse at 30 mg/kg, po measured up to 24 hrs; format: ADME, organism-based; conditions: in vivo
# [30] = AUClast in CD-1 mouse at 3 mg/kg, iv measured up to 24 hrs; format: ADME, organism-based; conditions: in vivo
# KOPTK1 [31] = assay: Downregulation of YES1 in human KOPT-K1 cells measured for 6 hrs by tandem mass tag proteomic assay; format: functional, cell-based
# [32] = Half life in CD-1 mouse at 30 mg/kg, po measured up to 24 hrs; format: ADME, organism-based; conditions: in vivo
# KOPTK1 [33] = assay: Downregulation of CISH in human KOPT-K1 cells measured for 6 hrs by tandem mass tag proteomic assay; format: functional, cell-based
# [34] = molecular target: T1, Protein cereblon/Tyrosine-protein kinase Lck; assay: PROTAC activity at HiBit-tagged LCK/CRBN in human KOPT-K1 cells assessed as induction of LCK degradation incubated for 6 hrs by Nano-Glo HiBiT assay relative to control; format: cell-based
# Target sequence in this assay (P06239 2-509 limits assumed): as the sequence (P06239 2-509 limits assumed) above
# Target sequence in this assay (Q96SW2 whole entry partner): as the sequence (Q96SW2 whole entry partner) above
# KOPTK1 [35] = assay: Downregulation of SIK2 in human KOPT-K1 cells measured for 6 hrs by tandem mass tag proteomic assay; format: functional, cell-based
# KOPTK1 [36] = assay: Downregulation of IKZF3 in human KOPT-K1 cells measured for 6 hrs by tandem mass tag proteomic assay; format: functional, cell-based
# KOPTK1 [37] = assay: Antiproliferative activity against human KOPT-K1 cells assessed as effect on cell viability measured for 72 hrs by celltiter glo assay; format: functional; conditions: read-out: LC50 (the source's name)
# [38] = Oral bioavailability in CD-1 mouse at 30 mg/kg measured up to 24 hrs; format: ADME, organism-based; conditions: in vivo
smiles,measurement,setting,value
Cc1nc(Nc2ncc(C(=O)Nc3c(C)cccc3Cl)s2)cc(N2CCC(CN3CCN(c4ccc(C5CCC(=O)NC5=O)cc4)CC3)CC2)n1 (stereo not drawn),Activity,[1],Active
same,half-life,[2],3.51 h
same,Activity,KOPTK1 [3],Active
same,Papp B→A,[4],11.3 nm/s
same,half-life,[5],45.2 h
same,AUC(0-t) at 24 h,[6],20.7 µg·h/mL
same,concentration at 4 h,[7],3.29 µg/mL
same,DC50,[8],0.0175 µM
same,half-life,[9],2 h
same,Activity,KOPTK1 [10],inactive
same,Activity,KOPTK1 [11],inactive
same,DC50,[12],0.00121 µM
same,Emax,[13],98%
same,Activity,KOPTK1 [14],Active
same,Activity,Mus musculus [15],10%
same,Vd,[16],3.51 L/kg
same,Cmax,[17],1.45 µg/mL
same,Papp A→B,[18],3.02 nm/s
same,clearance,[19],0.838 L/h/kg
same,Activity,KOPTK1 [20],inactive
same,Activity,KOPTK1 [21],Active
same,efflux ratio,[22],3.75
same,Activity,Mus musculus [23],5%
same,Cmax,[24],2.24 µg/mL
same,Activity,KOPTK1 [25],Active
same,Tmax,[26],1 h
same,Activity,KOPTK1 [27],inactive
same,Vdss,[28],6.34 L/kg
same,CL/F,[29],1.44 L/h/kg
same,AUC(0-t) at 24 h,[30],3.56 µg·h/mL
same,Activity,KOPTK1 [31],inactive
same,half-life,[32],3.05 h
same,Activity,KOPTK1 [33],Active
same,Emax,[34],77%
same,Activity,KOPTK1 [35],inactive
same,Activity,KOPTK1 [36],inactive
same,CC50,KOPTK1 [37],0.0201 µM
same,bioavailability,[38],58%
